Patent US12708630B2, “Combined therapy of 4′-thio-5-aza-2′-deoxycytidine and Venetoclax” (PINOTBIO, INC., priority 2021, dated 2026)
Like-named read-outs stand apart in the source and are kept apart here. One block for each compound: values may come before it.

Columns and labels:
[1] = test system: systemic MV4-11 engraftment model
Protocol: After establishing a systemic MV4-11 engraftment model that more accurately depicts the disease in humans, Aza-T-dCyd was administered orally at doses ranging from 0.4 to 1.5 mg/kg.
After establishment of the systemic MV4-11 engraftment model, Aza-T-dCyd was administered orally at doses of 1.5, 2.0, and 2.5 mg/kg (using the standard dose/dosing schedule used in preclinical trials for decitabine/azacytidine).
After establishing a systemic MV4-11 engraftment model, blood was collected at pre-treatment (Day 21) and mid-treatment (Day 36, 56, 77) in the Aza-T-dCyd and Decitabine/Azacytidine groups and analyzed for complete blood count (CBC) values.
To determine whether the anti-cancer efficacy in the systemic MV4-11 engraftment model was directly related to the ability to suppress the number of cancer cells, we performed experiments to measure body luminescence after systemic engraftment using the luciferase-transfected Mv4-11 cell line.

DNMT1 [2] = target: T1, DNMT1 (Homo sapiens, UniProt P26358); assay: DNMT1 expression in HL-60 xenograft tumor samples; format: in vivo, mice; set-up: tumor samples were collected on day 11 to determine the expression of DNMT1, DNMT3A, and DNMT3B; from tissue; host or cells: HL-60 xenograft tumour samples (mouse host); conditions: 2 mg/kg NTX-301 or 0.75 mg/kg Decitabine intraperitoneally, day 11
Protocol: (§1) As the efficacy of DNMT1 inhibitors correlates with their selective profile for targeting DNMT1 and the de novo methyltransferases DNMT3A and DNMT3B, we confirmed the expression of DNMT1, DNMT3A, and DNMT3B in the Aza-T-dCyd and Decitabine treated groups in this xenograft model (FIG. 27).
(§2) In the HL-60 xenograft mice model, 2 mg/kg of NTX-301 (Aza-T-dCyd) or 0.75 mg/kg of Decitabine were administered intraperitoneally, and then tumor samples were collected on day 11 to determine the expression of DNMT1, DNMT3A, and DNMT3B. […] On the other hand, the expression levels of DNMT3A and DNMT3B were different in the Aza-T-dCyd and Decitabine treatment groups.

[3] = test system: p15 tumor suppressor gene; assay: p15 tumor suppressor gene re-expression (RT-PCR) in MV4-11 cells; format: cell-based; conditions: MV4-11 cell line
Protocol: Therefore, to determine the re-expression of tumor suppressor genes through epigenetic regulation mechanisms induced by DNMT1 inhibition upon Aza-T-dCyd (NTX-301) treatment, MV4-11 cells, an AML cell line, were treated with Aza-T-dCyd at different concentrations. […] Table 1 below compares the degree of p15 mRNA re-expression after DNMT1 inhibitor (Aza-T-dCyd/Decitabine) treatment in the MV4-11 cell line, an AML cell (fold increase from 0 nM is shown).

HCT-116 (colorectal) = HCT-116 (colorectal) xenograft model; format: in vivo, Mouse; conditions: colorectal (HCT-116) xenograft, Decitabine comparator, dose not given
Protocol: The efficacy of Aza-T-dCyd was confirmed by tumor growth curves after administration of Aza-T-dCyd in various solid cancer xenograft models. Aza-T-dCyd at a dose of 1~2 mg/kg was administered repeatedly for 2~6 cycles in QD×5, showing excellent anti-cancer effects (evidenced by test/control (T/C) value≤40%).

DNMT1 [4] = target: T1, DNMT1; assay: DNMT1 protein Western blotting in cancer cell lines; format: cell-based; set-up: endogenous in cells; host or cells: MV4-11, KG-1a, CCRF-CEM, NCI-H23, HCT-116, IGROV-1 (also HL-60, THP-1)
leukemia cell lines = assay: Growth-inhibitory activity on leukemia cell lines (GI50); format: cell-based; conditions: 72 h, read-out: GI50 values (half maximal growth inhibitory concentrations)
Protocol: The growth-inhibitory activity of Aza-T-dCyd, a DNMT1 inhibitor, was measured in leukemia cell lines to determine its inhibitory effect on cell proliferation.
The growth-inhibitory activity of DNMT1 inhibitors, Aza-T-dCyd and Decitabine, was measured on leukemia cell lines to determine their effect on cell proliferation.

BL0382PD PDX (bladder) = format: in vivo, Mouse; conditions: NSG, mouse, in vivo, 0.75 mg/kg, 2 cycles
Source text: The efficacy of Aza-T-dCyd was confirmed by tumor growth curves after administration of Aza-T-dCyd in various solid cancer xenograft models. […]

DNA methylation = assay: DNA demethylation; format: cell-based
Source text: Through DNA demethylation caused by Aza-T-dCyd treatment, various tumor suppressor genes and genes required for differentiation induction of AML cells were reactivated, and the reactivated expression patterns of these genes were confirmed by RNA-seq data analysis (FIG. 24).

HL-60 AML xenograft = HL-60 AML xenograft model; format: in vivo
DNMT3B = DNMT3B (Homo sapiens, UniProt Q9UBC3); assay: DNMT3B expression in HL-60 xenograft tumor samples; format: in vivo, mice; set-up: tumor samples were collected on day 11 to determine the expression of DNMT1, DNMT3A, and DNMT3B; from tissue; host or cells: HL-60 xenograft tumour samples (mouse host); conditions: 2 mg/kg NTX-301 or 0.75 mg/kg Decitabine intraperitoneally, day 11
Protocol: as §1, §2

cytidine deaminase = assay: Degradation by cytidine deaminase; conditions: compared to Decitabine/Azacytidine, oral administration
Source text: Decitabine/Azacytidine is susceptible to metabolism by cytidine deaminases in the body, resulting in an unstable PK profile that limits its efficacy.

MV4-11 AML cells = assay: MV4-11 AML xenograft implanted subcutaneously, combination with venetoclax; format: in vivo, mice; conditions: administered alone (Aza-T-dCyd 2 mpk), FIGS. 30 and 31
Protocol: After establishing a xenograft systemic AML model in which MV4-11 AML cells were implanted subcutaneously in mice, Aza-T-dCyd alone at 2.0 mpk for 1 cycle (5 days on, 2 days off, 5 days on, 9 days off) was administered (PO) or Aza-T-dCyd 0.5, 1.0 or 2.0 mpk plus venetoclax 50 mpk or 100 mpk administered orally (PO) for 1 cycle (venetoclax on for 5 days, off for 2 days, repeated for 3 weeks). Anti-cancer efficacy was determined in disease models in which azacitidine 5.0 mpk was administered intraperitoneally (IP) alone or in combination with optimal dose of azacitidine (2.5 mpk) and venetoclax 50 mpk or 100 mpk as a control.

T1 sequence (P26358 whole entry): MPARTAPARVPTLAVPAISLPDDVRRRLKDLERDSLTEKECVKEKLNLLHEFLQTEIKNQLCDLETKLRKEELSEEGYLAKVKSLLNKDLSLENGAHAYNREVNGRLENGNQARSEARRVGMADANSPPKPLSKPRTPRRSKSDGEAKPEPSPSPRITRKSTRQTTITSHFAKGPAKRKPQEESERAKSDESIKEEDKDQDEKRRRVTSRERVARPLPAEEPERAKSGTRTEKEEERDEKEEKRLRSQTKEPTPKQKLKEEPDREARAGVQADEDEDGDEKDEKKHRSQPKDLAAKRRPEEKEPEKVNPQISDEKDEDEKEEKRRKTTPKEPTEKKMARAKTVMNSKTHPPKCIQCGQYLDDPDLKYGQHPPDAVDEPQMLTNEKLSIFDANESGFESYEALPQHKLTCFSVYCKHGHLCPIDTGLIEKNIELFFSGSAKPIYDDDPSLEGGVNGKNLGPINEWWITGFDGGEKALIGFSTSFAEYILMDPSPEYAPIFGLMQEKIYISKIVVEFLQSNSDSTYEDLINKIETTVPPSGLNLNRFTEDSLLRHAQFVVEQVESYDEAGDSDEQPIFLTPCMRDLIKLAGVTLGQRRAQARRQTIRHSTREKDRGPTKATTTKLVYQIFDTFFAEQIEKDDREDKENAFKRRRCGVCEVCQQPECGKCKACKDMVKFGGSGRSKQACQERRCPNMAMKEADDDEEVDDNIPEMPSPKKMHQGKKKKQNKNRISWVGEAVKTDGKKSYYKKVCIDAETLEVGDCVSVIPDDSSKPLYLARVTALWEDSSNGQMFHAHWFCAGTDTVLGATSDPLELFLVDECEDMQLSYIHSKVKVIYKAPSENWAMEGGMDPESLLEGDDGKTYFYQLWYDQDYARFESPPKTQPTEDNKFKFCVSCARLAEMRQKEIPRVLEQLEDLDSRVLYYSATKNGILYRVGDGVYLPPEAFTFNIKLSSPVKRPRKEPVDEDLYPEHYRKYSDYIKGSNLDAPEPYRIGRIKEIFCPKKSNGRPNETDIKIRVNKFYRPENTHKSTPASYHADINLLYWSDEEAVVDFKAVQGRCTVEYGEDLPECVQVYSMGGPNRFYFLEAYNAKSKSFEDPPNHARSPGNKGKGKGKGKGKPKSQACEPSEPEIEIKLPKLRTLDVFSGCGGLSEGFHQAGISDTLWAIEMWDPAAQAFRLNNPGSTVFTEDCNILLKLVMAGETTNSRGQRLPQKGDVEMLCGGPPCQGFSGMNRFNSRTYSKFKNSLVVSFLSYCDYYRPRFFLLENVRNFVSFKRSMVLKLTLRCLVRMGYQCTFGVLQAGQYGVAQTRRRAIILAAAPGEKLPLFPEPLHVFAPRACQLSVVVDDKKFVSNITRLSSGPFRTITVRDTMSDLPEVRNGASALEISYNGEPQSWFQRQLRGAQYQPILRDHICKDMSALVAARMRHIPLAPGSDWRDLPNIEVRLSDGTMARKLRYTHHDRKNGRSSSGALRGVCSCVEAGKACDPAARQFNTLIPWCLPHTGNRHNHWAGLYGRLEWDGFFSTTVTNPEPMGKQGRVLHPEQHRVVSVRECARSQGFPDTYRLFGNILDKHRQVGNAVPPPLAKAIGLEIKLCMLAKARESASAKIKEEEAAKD

Compound: Nc1ncn([C@H]2C[C@H](O)[C@@H](CO)O2)c(=O)n1 [Decitabine, 5-aza-2′-deoxycytidine]
- anti-AML activity and survival ([1]; Aza-T-dCyd oral 1.5, 2.0 and 2.5 mg/kg, decitabine/azacytidine at standard preclinical dose/schedule): no therapeutic effect
- complete blood count (WBC, RBC, Neutrophil, Platelet) ([1]; blood at Day 21, 36, 56, 77): all individuals died before blood samples were collected
- DNMT1 expression in tumor samples (DNMT1 [2]): significantly reduced
- p15 mRNA re-expression ([3]; 6 nM): 1.3 ± 0.27 fold increase from 0 nM
- p15 mRNA re-expression ([3]; 20 nM): 1.7 ± 0.85 fold increase from 0 nM
- p15 mRNA re-expression ([3]; 60 nM): 2.2 ± 0.52 fold increase from 0 nM
- p15 mRNA re-expression ([3]; 200 nM): 4.3 ± 0.83 fold increase from 0 nM
- T/C (HCT-116 (colorectal)): 45%
- DNMT1 inhibition (DNMT1 [4]; MV4-11 (AML cell line) cells, different concentrations, FIG. 10): inhibits DNMT1
- GI50 (leukemia cell lines): 24 to 4300 nM
- toxicity (BL0382PD PDX (bladder)): showed toxicity after 2 cycles
- pattern of DNA demethylation (DNA methylation): genome-wide demethylation
- tolerability above the maximum dose (HL-60 AML xenograft; above 0.75 mg/kg): animals died above this dose
- tumor suppression (HL-60 AML xenograft; maximum dose 0.75 mg/kg): no tumor suppression
- DNMT3B expression level in tumor samples (DNMT3B): no effect was observed

Compound: Nc1ncn([C@@H]2O[C@H](CO)[C@@H](O)[C@H]2O)c(=O)n1 [Azacytidine, reference compound]
- complete blood count (WBC, RBC, Neutrophil, Platelet) ([1]; mouse, in vivo): severe neutropenia

Compound: Nc1ncn(C2CC(O)C(COP(=O)(O)OP(=O)(O)OP(=O)(O)O)S2)c(=O)n1 (stereo not drawn) [aza-T-dCTP]
- rate of degradation by cytidine deaminase (cytidine deaminase): slower rate of degradation by cytidine deaminase

- DNMT1 inhibition (DNMT1 [4]; CCRF-CEM (ALL cell line) cells, FIG. 12): inhibits DNMT1
- DNMT1 inhibition (DNMT1 [4]; KG-1a (AML cell line) cells, FIG. 11): inhibits DNMT1
- DNMT1 inhibition (DNMT1 [4]; NCI-H23, HCT-116 and IGROV-1 cell lines, FIG. 13): inhibits DNMT1
Compound: Nc1ccn([C@H]2C[C@H](O)[C@@H](CO)S2)c(=O)n1 [T-dCyd, reference compound]

Compound: CC1(C)CCC(CN2CCN(c3ccc(C(=O)NS(=O)(=O)c4ccc(NCC5CCOCC5)c([N+](=O)[O-])c4)c(Oc4cnc5[nH]ccc5c4)c3)CC2)=C(c2ccc(Cl)cc2)C1 [Venetoclax]
- anti-cancer effect (tumor volume), single agent (MV4-11 AML cells): limited tumor regression
